# Key:
# [1] = tested on: subjects with migraine headache; experiment: Open-label pilot study of safety, effectiveness and tolerability in the prophylactic treatment of migraine (Example 1); format: in vivo, human
# Experimental: An open-label pilot study was performed to evaluate the safety, effectiveness and tolerability of the MAOI isocarboxyzid (Marplan®) in the prophylactic treatment of migraine.
# Male and female subjects 18-60 years of age were recruited. […] The subject must have had approximately 3-12 migraine headaches per month for the 3 months prior to entering the screening period. Major exclusion criteria included a history of cluster headache, migraine with prolonged aura, and atypical forms of migraine. […] Concomitant use of tryptans, NSAID's, antidepressants and other commonly used ant-migraine agents was prohibited. The Headache Assessment Scale and other assessments were recorded at Baseline and Weeks 1, 4, 8, 12, 16 and 20. Primary safety and efficacy analysis were based on the intention-to-treat population. Safety data included laboratory data, adverse events, vital signs, and ECG's. The primary efficacy measure was within-subject change from baseline in migraine frequency.
# Fourteen subjects had at least on post-baseline assessment, and seven subjects completed the full 20 weeks of treatment (Table 1a,b). […] Five subjects (31%) withdrew due to adverse events. […] The mean does for completers at the end of study was 38.6 mg (Table 2). […] At baseline, subjects reported an average migraine frequency of 5.2 +1.9 attacks/month. […] At week 20, a frequency of 0.4±0.7 (p<0.001) was observed. […] Because of the small number of subjects and relatively high dropout rate, an analysis of the data using a Last Observation Carried Forward (LOF) procedure was undertaken.
# [2] = tested on: patients suffering from migraine with aura; experiment: Double blind, randomized, placebo-controlled study in migraine with aura (Example 2); format: in vivo, human; conditions: 10 mg to 40 mg per day, oral
# Experimental: A double blind, multicenter, randomized, placebo-controlled study is performed to evaluate the efficacy of isocarboxazid in treating patients suffering from migraine with aura.
# (§1) A total of 16 patients participate in the study in […]. The age of the recruited patients ranges between 18 years and 75 years. Both male and female patients are selected for the study. Recruitment period for the study is 5 months.
# Isocarboxazid is prescribed as a prophylaxis to one group of patients. Also, isocarboxazid is prescribed after the expression of symptoms to another group of patients. […] Dose increments are based on the investigator's judgment of the patient's response. After 4 weeks of therapy on 20 mg per day, the doses may be increased to 30 mg per day, 10 mg in the AM and 20 mg in the PM. After 4 weeks of therapy on 30 mg per day, doses may be increased to 40 mg per day, 20 mg in the AM and 20 mg in the PM. After 4 weeks of 40 mg per day, the doses may be increased to 50 mg per day, 20 mg in the AM and 30 mg in the PM. After 4 weeks of 50 mg per day, the doses may be increased to 60 mg per day, 30 mg in the AM and 30 mg in the PM. The duration of the medication treatment is a total of 20 weeks. […]
# (§2) In order to determine the efficacy of isocarboxazid, pain intensity is evaluated on an assessment scale and recoded in an assessment sheet. […]
# (§3) The collected data are statistically analyzed.
# [3] = tested on: patients suffering from migraine without aura; experiment: Double blind, randomized, placebo-controlled study in migraine without aura (Example 3); format: in vivo, human; conditions: 10 mg to 40 mg per day, oral
# Excerpt: as §1
# Isocarboxazid is prescribed as a prophylaxis to one group of patients. Also, isocarboxazid is prescribed after the expression of symptoms to another group of patients. […] Dose increments are based on the investigator's judgment of the patient's response. After 4 weeks of therapy on 20 mg per day, the doses may be increased to 30 mg per day, 10 mg in the AM and 20 mg in the PM. After 4 weeks of therapy on 30 mg per day, doses may be increased to 40 mg per day, 20 mg in the AM and 20 mg in the PM. After 4 weeks of 40 mg per day, the doses may be increased to 50 mg per day, 20 mg in the AM and 30 mg in the PM. After 4 weeks of 50 mg per day, the doses may be increased to 60 mg per day, 30 mg in the AM and 30 mg in the PM. The duration of the medication treatment is a total of 20 weeks.
# Patients in the study are diagnosed for the symptoms of migraine without aura. Diagnosis is performed according to the criteria set forth by the International Headache Society. […]
# as §2, §3
# [4] = tested on: acute migraine headaches; experiment: Double blind, placebo-controlled single dose study in acute migraine headaches (Example 4); format: in vivo, human; conditions: 20 and 40 mg single doses; after 2 hrs and 24 hours
# Experimental: A double blind, multicenter, randomized, placebo-controlled single dose study to evaluate the efficacy of isocarboxazid in the treatment of acute migraine headaches is conducted.
# The study consists of a screening visit, at home treatment of a single migraine attack, and a follow up visit 1-5 days following treatment. In addition to safety evaluations, the patients are evaluated for efficacy based on superiority over the placebo at 2 hour and 24 hour periods
# after dosing for a) pain relief; b) incidence of photophobia; c) incidence of phonophobia; and d) incidence of nausea.
# The results are collected from 30 patients.
# [5] = tested on: migraine patients; experiment: Study of preventing migraines (Example 5); format: in vivo, human
# Excerpt: (§4) This study is designed to evaluate the efficacy of isocarboxazid in preventing migraines and in the treatment of chronic tension-type headache.
# (§5) A total of 61 patients suffering from chronic tension-type headache are recruited. […] While on this therapy, 35 of the 42 migraine patients and 16 of the 17 patients with tension-type headaches are experiencing good or very good improvement in their symptoms. […] In tension-type headaches, the effect may occur at the earliest 3-6 weeks and in the case of migraines at the earliest 6-8 weeks after the start of treatment. The therapeutic result is independent of any concurrent depression.
# [6] = tested on: patients with tension-type headaches; experiment: Study of treatment of chronic tension-type headache (Example 5); format: in vivo, human
# Excerpt: as §4, §5
# [7] = human, in vivo, inhaled or intranasal, 10 mg
smiles,measurement,setting,value
Cc1cc(C(=O)NNCc2ccccc2)no1 [isocarboxazid],"Discontinued (Lack of efficacy), number of subjects (%)","[1]; 16 subjects at baseline visit, 20 weeks",0 (0%)
same,Change from baseline (mean ± SD) in migraine frequency,"[1]; LOCF, n 14, p-value 7.0 × 10^−6",3.8 ± 2.8
same,Change from baseline (mean ± SD) in migraine frequency,"[1]; Observed cases, n 7, p-value 1.5 × 10^−7",5.9 ± 1.5
same,reduction in migraine frequency during the course of treatment,[1]; all subjects,significant reduction
same,"Adverse Event: Anxiety, Number","[1]; both, human, in vivo, 20 weeks",1
same,"Adverse Event: Fatigue, Number","[1]; both, human, in vivo, 20 weeks",2
same,"Adverse Event: Insomnia, Number","[1]; both, human, in vivo, 20 weeks",1
same,"Adverse Event: Nosebleed, Number","[1]; both, human, in vivo, 20 weeks",1
same,"Discontinued (Adverse Experience), number of subjects (%)","[1]; both, human, in vivo, 20 weeks",5 (31%)
same,subjects who withdrew due to adverse events,"[1]; both, human, in vivo, 20 weeks",31%
same,reduction in migraine frequency (clinically significant response) reached by all completers,"[1]; by week 16, all subjects completing the study, FIG. 3",≥ 50%
same,maximum dose tolerated by most subjects,"[1]; most subjects, FIG. 1, titrated from 20 mg per day up to 60 mg per day",20 to 40 mg/day
same,reductions in migraine frequency by week 8,"[1]; week 8, FIG. 2",significant reductions
same,migraine frequency at week 20,"[1]; week 20, baseline 5.2 +1.9 attacks/month, p<0.001",0.4±0.7 attacks/month
same,effect versus placebo in treating and preventing migraine with aura,[2],superior effect over the placebo
same,effect versus placebo in treating and preventing migraine without aura,[3],superior effect over the placebo
same,effect versus placebo in treating acute headaches,[4],superior effect over a placebo
same,patients experiencing good or very good improvement in their symptoms,"[5]; migraine patients, 10 to 60 mg daily dose, about 8 months on average",35 of the 42
same,earliest occurrence of the effect after the start of treatment,[5]; migraines,6-8 weeks
same,earliest occurrence of the effect after the start of treatment,[6],3-6 weeks
same,patients experiencing good or very good improvement in their symptoms,"[6]; 10 to 60 mg daily dose, about 8 months on average",16 of the 17
same,share of the maximum plasma concentration (Cmax) reached at 30 minutes after administration,[7],60%

# Reference: patent US20160067187A1, “Methods for Treating or Preventing Migraines” (Validus Pharmaceuticals LLC, priority 2005, published 2016)
